Data reported in patent EP0736009B1, “N-OXIDES OF 4-ARYLPIPERAZINES AND 4-ARYLPIPERIDINES AS ANTIPSYCHOTIC DRUGS” (ORTHO PHARMACEUTICAL CORPORATION, priority 1993, dated 1995).

Assays:
[1] = tested on: Rat; assay: Block of Conditioned Avoidance Responding (Rat) test (CAR); format: in vivo, Male, Fischer 344 rats; conditions: for Loss of escape: % failures to escape (group mean), measure of general sedative potential, at CAR 15 mg/kg ip; for % CAR at 15 mg/kg: mean % change in CAR vs vehicle pretreatment day, 15 mg/kg ip, negative number = blockade of CAR
Excerpt: The antipsychotic activity of the compounds of the invention may be determined by the Block of Conditioned Avoidance Responding (Rat) test (CAR), references being Cook, L. and E. Weidley in Ann. N.Y. Acad. Sci., 1957, 6, 740-752, and Davidson, A.B. and E. Weidley in Life Sci., 1976, 18, 1279-1284. A reading of -20% in the CAR test was generally taken to represent a minimum value for a compound to be designated as active at a given dose. In addition, the affinity of the compounds for several receptors found in the central nervous system was evaluated; the affinity for the D-2 (dopamine-2) receptors is also listed in Table 1. As modulation of this receptor is generally recognized to be beneficial in the treatment of schizophrenia (G. P. Reynolds Trends Pharmacol. Sci. 1992, 13, 116), affinity for this receptor indicates potential utility for the compounds. […] Block of Conditioned Avoidance Responding (Rat) Apparatus: Rat operant chambers, housed within sound attenuated booths, both from […] Instruments Ltd., were used in this test. The test chamber (8" H x […] D) is constructed of aluminum and plexiglass with floor grid bars of stainless-steel (1/8" O.D.) spaced 9/16" apart. A stainless-steel operation level 1-1/2" wide projects 3/4" into the chamber and is positioned 2-2/8" above the grid floor. The shock stimulus is delivered via the grid floor by a Coulbourn Instruments solid state module. The parameters of the test and the collection of data are controlled automatically. Training: Male, Fischer 344 rats obtained from Charles River (Kingston, NY) weighing more than 200 g, are individually housed with chow and water provided ad libitum. The rats are trained for two weeks to approach criterion levels in the avoidance test (90% avoidance rate). One-hour training sessions are run at about the same time each day for four or five days a week. The training session consists of 120 trials, with the conditioned stimuli presented every 30 sec. A trial begins with presentation of the conditioned stimuli (a light and a tone). If the rat responds by depressing the operant lever during the 15-second presentation of the conditioned stimuli, the trial is terminated and the animal is credited with a CAR. Failure to respond during the conditioned stimuli causes the presentation of the unconditioned stimulus (UCS), a 0.7 mA shock which is accompanied by a light and tone for five seconds. If the rat depressed the lever within the ten-second period, the shock and trial are terminated and an escape response recorded. If the rat fails to depress the lever during the UCS (shock), the trial is terminated after ten seconds of shock and the absence of a response is scored as a failure to escape. […] presses have no effect. If a rat performs at the 90% CAR level for two weeks, it is then run twice a week on the test schedule (see below) until baseline performance stabilized. Before any drug is administered, two weeks of CAR at a rate of 90% or better is required. The percent change in CAR on the drug treatment day compared to vehicle pretreatment day is the key measure. The percent change (% change) in CAR is determined using the following formula: % change CAR = ((% CAR for Day 2/% CAR for Day 1) x 100)-100 [formula] A negative number indicates a blockade of CAR, whereas a positive number would indicate increased CAR. The test results are reported as the mean % change for the group of rats. Failure to escape, a measure of the general sedative potential of the compound, was calculated for each animal as follows: % Failures = # of Failures to Escape/# of trials [formula] The % failures, viz., loss of escape, is also reported as a group mean. Failures to escape are monitored closely and a session is terminated if ten failures occurred. ED50 values and 95% confidence limits are calculated using linear regression analysis. […]

[2] = molecular target: T1, D-2 (dopamine-2) receptors (Rattus norvegicus, UniProt P61169); assay: Dopamine D2 receptor binding assay (3H-spiperone, striatal P2 fraction); set-up: species or system male, Wistar rats; conditions: rat striatum P2 fraction; 3H-spiperone 0.05 nM; 45 min at 37°C
T1 construct: The D2 assay employed a P2 fraction from the striatum; from tissue; host or cells: rat striatum, P2 fraction (synaptosomal membranes)
T1 sequence (P61169 whole entry): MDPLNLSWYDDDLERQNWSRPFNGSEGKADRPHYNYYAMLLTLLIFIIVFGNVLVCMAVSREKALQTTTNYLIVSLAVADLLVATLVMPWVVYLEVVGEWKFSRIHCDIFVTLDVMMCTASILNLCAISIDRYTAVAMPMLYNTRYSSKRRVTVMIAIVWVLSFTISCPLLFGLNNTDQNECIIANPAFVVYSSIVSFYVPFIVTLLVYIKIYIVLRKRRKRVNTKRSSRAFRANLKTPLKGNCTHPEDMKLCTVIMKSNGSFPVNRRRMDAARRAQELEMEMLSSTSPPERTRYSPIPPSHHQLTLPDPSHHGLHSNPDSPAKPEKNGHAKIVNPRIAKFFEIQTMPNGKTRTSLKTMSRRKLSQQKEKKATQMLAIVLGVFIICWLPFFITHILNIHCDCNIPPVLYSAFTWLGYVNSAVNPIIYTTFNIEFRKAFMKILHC
Excerpt: The antipsychotic activity of the compounds of the invention may be determined by the Block of Conditioned Avoidance Responding (Rat) test (CAR), references being Cook, L. and E. Weidley in Ann. N.Y. Acad. Sci., 1957, 6, 740-752, and Davidson, A.B. and E. Weidley in Life Sci., 1976, 18, 1279-1284. A reading of -20% in the CAR test was generally taken to represent a minimum value for a compound to be designated as active at a given dose. In addition, the affinity of the compounds for several receptors found in the central nervous system was evaluated; the affinity for the D-2 (dopamine-2) receptors is also listed in Table 1. As modulation of this receptor is generally recognized to be beneficial in the treatment of schizophrenia (G. P. Reynolds Trends Pharmacol. Sci. 1992, 13, 116), affinity for this receptor indicates potential utility for the compounds. […].
The dopamine D2 binding activity of compounds was determined using a P2 fraction (synaptosomal membranes) prepared from male, Wistar rats. The D2 assay employed a P2 fraction from the striatum, the ligand ^3H-spiperone at a concentration of 0.05 nM, and 1 mM haloperidol as a blank determinant. […].
The data from this assay were analyzed by calculating the percent inhibition of the binding of the tritiated ligands by given concentrations of the test compound. KI values, where given, were obtained from the logit analysis of concentration-inhibition curves.

Question: For CC(C)Oc1ccccc1C1CC[N+]([O-])(Cc2cccc(C(=O)N3[C@H](C)CCC[C@@H]3C)c2)CC1 (relative stereo) [Compound 3, 1-[3-[[4-[2-(1-Methylethoxy)phenyl]-1-piperidinyl-1-oxide]methyl]benzoyl]-cis-2.6-dimethylpiperidine], which Loss of escape [1] is on record?
Answer: 0.4%

Question: What about the “% CAR at 15 mg/kg” value [1] of the same compound?
Answer: -37.7%

Question: What about the Ki [2] of the same compound?
Answer: 371 nM

Question: For CC(C)Oc1ccccc1[N+]1([O-])CCN(Cc2cccc(C(=O)N3CCCCC3)c2)CC1 [Compound 1, 1-[3-[[4-[2-(1-Methylethoxy)ehenyl]-4-oxide-1-piperazinyl]methyl]benzoyl]piperidine], which Loss of escape [1] is on record?
Answer: 44.8%

Question: And the “% CAR at 15 mg/kg” value [1]?
Answer: -91.7%

Question: What about the Ki [2] of the same compound?
Answer: 140 nM

Question: What does the source list for CC(C)Oc1ccccc1N1CC[N+]([O-])(Cc2cccc(C(=O)N3CCCCC3)c2)CC1 [Compound 2, 1-[3-[[4-[2-(1-Methylethoxy)phenyl]-1-piperazinyl-1-oxide]methyl]benzoyl]piperidine]?
Answer: Loss of escape [1]: 31.5%; % CAR at 15 mg/kg [1]: -87.6%; Ki [2]: 355 nM
